One test concerns hMDMs. Nature of the test: RNA-seq transcriptional response of hMDMs (GSEA, GO enrichment). To be noted: hMDMs, 2.5 μM, 24 hours. It is filed as cell-based, human.
The next test relates to B16F10 melanoma cells. Nature of the test: Tumor growth inhibition by treated macrophages or their conditioned medium. It is filed as cell-based, mouse. Here is the method:
DEGs were identified by edgeR at P<0.05 with at least 2 fold-change. Data for genes that were not classified as differentially expressed are plotted in black. […] Mouse BMMs were cultured in normal medium with or without 2.5 μM thiostrepton for 24 hrs (group 1), or cultured in B16F10 tumor cell conditioned medium (CM) with or without 2.5 μM thiostrepton for 24 hrs (group 2), or cultured with B16F10 tumor cell CM for 24 hrs first and then treated with 2.5 μM thiostrepton for another 24 hrs (group 3). The transcript levels of the indicated genes were quantified by qPCR. Data were summarized from two independent experiments. […] Mouse BMMs were treated with thiostrepton for 24 hrs. […] The number of tumor cells were quantified by flow cytometry after subtracting macrophages from total number of cells. […]
Conditioned medium (CM) was collected and filtered. […] The number of tumor cells were quantified by flow cytometry. […] Mouse BMMs (FIG. 14B) or hMDM (FIG. 14C) were treated with […] thiostrepton for 24 hrs, then co-cultured with equal number of eFluro670 and anti-CD20 labelled human B-cell lymphoma cells for 2 hrs, and analyzed by flow cytometry. […]
Mouse bone marrow-derived macrophages (mBMM) were prepared as described previously^54. […] Expression of Arg, Fizz1 and Vegfa were quantified by qPCR to assess the development of TAMs. […]

The test system of test [1] is mouse BMMs with anti-CD20 labelled human B lymphoma cells (GMB). Nature of the test: ADCP of mouse macrophages. To be noted: co-culture 2 hrs. It is filed as cell-based. Further details: dose or concentration left out as unconfirmed. Here is the method: Conditioned medium (CM) was collected and filtered. B16F10 melanoma cells were cultured for 12 hrs with CM or CM heat-inactivated at 95° C. for 5 min. The number of tumor cells were quantified by flow cytometry. Data were summarized from two independent experiments. * P<0.05 by T-test. P values are shown based on t-test. […] Mouse BMMs (FIG. 14B) or hMDM (FIG. 14C) were treated with […] thiostrepton for 24 hrs, then co-cultured with equal number of eFluro670 and anti-CD20 labelled human B-cell lymphoma cells for 2 hrs, and analyzed by flow cytometry. Macrophages that have phagocytosed tumor cells are identified as efluro670+ and CD14+. Shown are representative eFluro670 histograms gating on CD14+ macrophages from three different experiments.
To examine whether thiostrepton-activating macrophages or conditioned medium have effects on tumor cell growth, BMMs were treated with thiostrepton for 24 hrs. Equal numbers of primed BMMs and melanoma cells (B16F10) were co-cultured for 12 hrs. […] Thiostrepton elevated ADCP of both human and mouse macrophages (FIGS. 14B-14C).

For test [2], the system named is hMDMs differentiated into M2 by IL-4 plus IL-13. Nature of the test: Reprogramming screen and dosage response on M2-like differentiated macrophages.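 Note: human monocyte-derived macrophages held 24 h in 5 ng/mL IL-4 plus IL-13 before 24 h compound exposure, with cell shape measured from images in 384-well plates.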 To be noted: Homo sapiens, Macrophage, 24 h, read-out: EC.
The next test relates to β-arrestin2. As to the kind of experiment: β-arrestin2 translocation assay (TIRF microscope). To be noted: 10 min, ImKCs and BMDMs; DPI 50 nM, S1P 3 mM. It counts as cell-based, mouse. Here is the method:
FIGS. 21A-21I show DPI stimulates glycolysis through GPR3 and β-arrestin2. FIGS. 21A-21B show DPI-stimulated glycolysis is independent of the NOX activity. […] The mean fluorescence intensity (MFI) of 2-NBDG in cells was measured by flow cytometry and normalized to DMSO controls of wildtype BMDMs. Data are presented as the mean±sd (n=3). […] ImKCs were transfected with siRNA specific for Gpr3 or a scramble siRNA as control. […] Data are presented as the mean±sd (n=4). […] Data are presented as the mean±sd (n=12). […] Abbr2^−/− ImKC were constructed by CRISPR-Cas9-mediated gene editing. […] Data are presented as the mean±sd (n=4). […] ImKCs were transfected with Abbr2-GFP fusion gene and stimulated with DMSO, DPI (50 nM), or S1P (3 mM). The GFP signal was captured with a TIRF microscope at indicated time points. Shown are representative data of GFP signal at 0 min and 10 min, and merged signal from three independent experiments.
Specific parameters for glycolytic capacity and glycolytic reserve were calculated and summarized based on two independent experiments. […] The GFP signal was captured with a TIRF microscope at indicated time points. […]
BMDMs or ImKCs were cotransfected with plasmids encoding FLAG-GPR3-GFP or β-arrestin2-RFP. […] The fluorescent signals of membrane-bound receptor or β-arrestin2 were collected as live images using a total internal reflection fluorescence (TIRF) microscope (Olympus). […]

The next test concerns ImKCs. To be noted: dose- and time-dependent.
The conditions of test [3]: KC-specific Pkm−/− mice.
Experimental: FIGS. 24G-24H show DPI's effect on KC-specific Pkm^−/− mice fed with HFD. Male KC-specific Pkm^−/− mice at the age of 5 weeks were fed with HFD for a total of 8 weeks. Three weeks after HFD, half of the mice were given DPI in vehicle (2 mg/kg) and the other half were given vehicle every 5 days for a total of 6 doses. Body weights were monitored weekly (FIG. 24G). Data are presented as the mean±sd from two independent experiments with 6 mice per group. Comparison of H&E staining of liver sections after 8 weeks on HFD. Shown are representative H&E staining from one mouse per group. Arrows in FIG. 24F and FIG. 24H point to lipid droplets. Scale bar: 100 μm. P values were calculated by student t-test. * P<0.05, ** P<0.01, *** P<0.001, **** P<0.0001.
FIGS. 34A-34C show effect of DPI on Kupffer cell-specific Pkm^−/− mice on HFD. […] KC-specific Pkm^−/− mice were given HFD for a total of 8 weeks. Three weeks after HFD, half of the mice were given DPI in vehicle (2 mg/kg) and the other half were given vehicle every 5 days for a total of 6 doses. At 7 weeks plus 3 days, mice were starved overnight (12˜16 hrs) with only water. Glucose (1 mg/kg) was injected intraperitoneally and blood glucose levels were monitored at the indicated time. […] Sera from mice were collected at the end of HFD feeding and activities of AST and ALT were measured by colorimetric assay kits (Sigma). Shown are representative data from two independent experiments with 5˜6 mice per group. P values were calculated by student t-test. n.s. not significant. * P<0.05.
KC-specific Pkm^−/− mice were fed with HFD for 8 weeks starting at 5 weeks of age. Three weeks after HFD, half of the mice were given vehicle and the other half was given DPI (2 mg/kg) i.p. every 5 days.

Like-named read-outs stand apart in the source and are kept apart here.

Experimental for ImKCs: Total protein lysates were isolated from either mouse ImKCs with or without DPI treatment for 6 and 12 hrs or human primary macrophages with or without DPI treatment for 12 hrs at the indicated concentrations. Equal amounts of total proteins from whole-cell lysates were subjected to Western blotting analysis. β-actin was used as a loading control. Shown are representative data of two independent experiments. […] P values were calculated by student t-test. * P<0.05, ** P<0.01. n.s. not significant.
Proteins were extracted from cells with RIPA buffer. Protein concentration was quantified by BCA Protein Assay Kit (Pierce Biotechnology). Samples containing 20 μg total protein were resolved on a 10% SDS-PAGE gel and electro-transferred onto a PVDF membrane (Millipore Corporation). The membrane was blocked in 5% (w/v) fat-free milk in PBST (PBS containing 0.1% Tween-20). […] The blot was washed twice in PBST and then incubated with anti-Rabbit HRP-conjugated secondary antibody (Cell Signaling Technology, 1:2000) in 5% fat-free milk. The membrane was washed twice in PBST and subjected to protein detection by ECL Plus Western Blotting Detection System (GE Healthcare) before being exposed to a Kodak BioMax XAR film.

Consider `C=C(NC(=O)C(=C)NC(=O)c1csc(C2=N[C@@H]3c4csc(n4)[C@H]4NC(=O)c5csc(n5)[C@H]([C@](C)(O)[C@@H](C)O)NC(=O)[C@H]5CSC(=N5)/C(=C/C)NC(=O)[C@H]([C@@H](C)O)NC(=O)c5csc(n5)[C@]3(CC2)NC(=O)[C@H](C)NC(=O)C(=C)NC(=O)[C@H](C)NC(=O)[C@H]([C@@H](C)CC)N[C@@H]2C=Cc3c([C@H](C)O)cc(nc3[C@H]2O)C(=O)O[C@@H]4C)n1)C(N)=O` [Thiostrepton], for which, in the test on hMDMs, the “expression of M2 chemokine CCL24” value was “down-regulate”; the “expression of proinflammatory cytokines TNFα and IL-1β” value is recorded as “polarized to express”. Also, the “melanoma cells in conditioned medium from treated macrophages” value in the test with B16F10 melanoma cells (12 hrs, vs untreated or heat-inactivated conditioned medium) was “more melanoma cells were lost”. Also, in the test with B16F10 melanoma cells (BMMs treated 24 hrs, co-culture 12 hrs, vs untreated macrophages, dose-dependent), the “melanoma cells after co-culture with treated macrophages” value is “Significantly more melanoma cells were lost”. Moreover, in test [1], the ADCP entry is “elevated”. For the same compound, the EC (M1 Z-score cutoff) in test [2] was 0.408 µM.

Turning to `c1ccc2c(c1)[I+]c1ccccc1-2` [Diphenyleneiodonium chloride], the “translocation of β-arrestin2 from cytosol to the plasma membrane” value in the test with β-arrestin2 is on record as “stimulated translocation”. Besides, the “HK, GAPDH, LDHA and enolase at the protein level” value in the test with ImKCs is given as “upregulation”. Besides, the “HFD-induced elevation of serum AST and ALT” value (HFD 8 weeks) is listed as “significantly reduced”. Moreover, the weight gain entry (HFD 8 weeks, 2 mg/kg i.p. every five days, vs vehicle) is “significantly reduced”. Moreover, where the note is “HFD 8 weeks, vs vehicle”, the glucose tolerance entry is recorded as “significant increase”. Besides, for the setting “HFD 8 weeks, vs vehicle”, the “lipid deposition in the liver” value is reported as “significantly reduced”. Also, the iWAT result (after 8 weeks on HFD) is given as “significantly lower levels” and the iWAT result in test [3] was “significantly lower level”. For the same compound, in test [3] (2 mg/kg i.p. every 5 days), the “HFD-induced body-weight gain and lipid droplet deposition in the livers” value is “did not reduce”. Further, the “glucose tolerance, serum AST and ALT levels” value in test [3] (with or without DPI) is recorded as “similar”. For the same compound, the EC (M1 Z-score cutoff) in test [2] was 0.336 µM.

The values are drawn from US20250262167A1, “COMPOUNDS, TARGETS AND PATHWAYS FOR MACROPHAGE MODULATION” (Massachusetts Institute of Technology, priority 2020, published 2025).
